{"source": "patent US6051582A", "about": "“Compounds useful for inhibition of farnesyl protein transferase” (Schering Corporation, priority 1998, dated 2000)", "key": {"[1]": {"test_system": "COS Cell", "assay": "COS Cell-Based Assay", "protocol": "(§1) FPT IC50 (inhibition of farnesyl protein transferase, in vitro enzyme assay) and COS Cell IC50 (Cell-Based Assay) were determined following the assay procedures described in WO 95/10516, published Apr. 20, 1995. GGPT IC50 (inhibition of geranylgeranyl protein transferase, in vitro enzyme assay), Cell Mat Assay, and anti-tumor activity (in vivo anti-tumor studies) could be determined by the assay procedures described in WO 95/10516. The disclosure of WO 95/10516 is incorporated herein by reference thereto."}, "[2]": {"target": "farnesyl protein transferase (Homo sapiens, UniProt P49354+P49356)", "sequence (P49356 whole entry, one chain of several)": "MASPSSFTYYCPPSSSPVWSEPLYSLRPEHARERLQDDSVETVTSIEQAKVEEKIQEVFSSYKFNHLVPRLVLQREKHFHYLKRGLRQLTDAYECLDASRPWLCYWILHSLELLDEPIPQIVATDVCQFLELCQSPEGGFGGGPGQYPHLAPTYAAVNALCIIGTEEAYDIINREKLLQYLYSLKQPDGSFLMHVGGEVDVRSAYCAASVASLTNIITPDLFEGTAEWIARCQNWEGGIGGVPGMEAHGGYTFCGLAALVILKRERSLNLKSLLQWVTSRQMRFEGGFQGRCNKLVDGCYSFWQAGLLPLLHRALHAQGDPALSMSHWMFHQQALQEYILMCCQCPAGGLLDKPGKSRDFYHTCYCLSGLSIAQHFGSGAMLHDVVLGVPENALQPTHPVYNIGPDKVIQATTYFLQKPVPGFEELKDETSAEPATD", "assay": "FPT inhibition, in vitro enzyme assay", "type": "biochemical", "protocol": "as §1"}}}
{"smiles": "CC1(CC(=O)N2CCC([C@H]3c4ncc(Br)cc4CCc4cc(Cl)cc(Br)c43)CC2)CCN(S(C)(=O)=O)CC1", "note": "[Example 1]", "values": [{"measurement": "IC50", "setting": "[1]", "result": 22, "unit": "nM"}, {"measurement": "IC50", "setting": "[2]", "result": 19, "unit": "nM"}]}
